The values that follow come from US8568762B2, “Methods for modifying the surface of an implant to provide said surface with calcium” (Biotechnology Institute, I Mas D, S.L., priority 2010, dated 2013).

The conditions of data set [1]: ambient temperature; cited from earlier work.
The test system of data set [2] is blood plasma. Kind of data set: Test 4a: coagulation as a function of the volume concentration of calcium (absorbance 450 nm). Type of data set: biochemical, human. The note with it: without surfaces; calcium in plasma between 2.5 and 45.6 mM. As for the experimental part:
Blood plasma was prepared by extracting blood from three healthy patients. A technique similar to the one described in patent EP1066838B1 was applied to obtain a Plasma Rich in Growth Factors (PRGF): the blood was centrifuged for eight minutes at 460 G; the column of plasma was then separated from the red globules and white globules by manual pipetting (unlike the protocol described in EP1066838B1, in this case, due to the criteria of volume for carrying out the experiments, the entire plasma column was selected, not merely the part richer in platelets). Both the red globules and the white globules were discarded.
For the purpose of determining the ranges of concentration of calcium ions in plasma at which coagulation is initiated, 10 μl of CaCl2.EtOH were placed in concentrations of between 28 and 2000 mM in the bottom of a multi-well plate comprising 96 wells. […] Absorbance was measured immediately in the manner described hereafter.
Immediately after the tubes were filled, absorbance (optical density) was measured with a spectrophotometer at a wavelength of 450 nm. […]
This gradual cross-linking gradually blocks the passage of the reader beam, the absorbance therefore increasing. […] It is at this point that the absorbance (optical density) values are collated so that comparisons can be made between the various samples.

The test system of data set [3] is blood plasma. Kind of data set: Test 4b: coagulation in the presence of surfaces with or without calcium (titanium tubes, absorbance 450 nm). The conditions noted are these: surfaces with no calcium; 50 mM NaOH or 0.9 wt. % NaCl treatment, not dried. It counts as biochemical, human. As for the experimental part:
Blood plasma was prepared by extracting blood from three healthy patients. A technique similar to the one described in patent EP1066838B1 was applied to obtain a Plasma Rich in Growth Factors (PRGF): the blood was centrifuged for eight minutes at 460 G; the column of plasma was then separated from the red globules and white globules by manual pipetting (unlike the protocol described in EP1066838B1, in this case, due to the criteria of volume for carrying out the experiments, the entire plasma column was selected, not merely the part richer in platelets). Both the red globules and the white globules were discarded. First of all, the surfaces were prepared. For the study of the coagulation, in which the excess surface calcium was to be measured, hollow tubes were used to enable the reader beam to move longitudinally. […] They were ultrasound-washed with Triton X-100, acetone and ethanol, for 20 minutes. Eight tubes were used per concentration. The solutions were prepared. […] Immediately after the tubes were filled, absorbance (optical density) was measured with a spectrophotometer at a wavelength of 450 nm. […] This gradual cross-linking gradually blocks the passage of the reader beam, the absorbance therefore increasing. […] It is at this point that the absorbance (optical density) values are collated so that comparisons can be made between the various samples.

In the case of `[Ca+2].[Cl-].[Cl-]` [CaCl2, calcium chloride], in data set [1], the solubility in water was greater than 60 g/100 mL. Besides, in data set [2], the “final degree of coagulation in volume, normalized with respect to the positive control” value is listed as “sometimes even greater than that of the positive control”.

On to `[Na+].[OH-]` [NaOH, sodium hydroxide], for which the “degree of coagulation inside titanium tubes normalized to positive control” value in data set [3] is “lack of coagulation is evident”.

Regarding `[Cl-].[Na+]` [NaCl, sodium chloride], the “degree of coagulation inside titanium tubes normalized to positive control” value in data set [3] is recorded as “lack of coagulation is evident”.
